Test results as given in patent US20130331326A1, “METHOD OF INDUCING HEMATOPOIETIC RECONSTRUCTION” (DUKE UNIVERSITY, priority 2011, published 2013).
“Also recorded” adds a separate entry of the source.

What was measured:
BM KSL cells [1] = assay: Culture of non-irradiated BM KSL cells with TSF with and without EGF; type: cell-based, mouse; conditions: TSF + 20 ng/ml EGF, 7 days, vs cytokines alone
[2] = tested on: BM hematopoietic stem and progenitor cells; assay: Hematopoietic regeneration in C57B16 mice after 700 cGy TBI (progenitor assays, competitive repopulation); type: in vivo, mouse
Experimental: BM cells were collected into PBS (Cellgro, Manassas, Va.) with 10% fetal bovine serum (Hyclone, Logan, Utah) and 1% penicillin/streptomycin (GIBCO, Grand Island, N.Y.). Viable BM cells were quantified using Trypan Blue Stain (Lonza, Basel, Switzerland) to exclude apoptotic and dead cells. Cells were then incubated with anti-c-kit, anti-Sca-1, anti-lineage cocktail, anti-CD41, anti-CD48, and anti-CD150 antibodies (Biolegend and eBiosciences, San Diego, Calif.; BD, San Jose, Calif.) to measure ckit^+sca-1^+lin^− (KSL) progenitor cells or CD150′CD41^−CD48^−KSL (SLAM/KSL) as previously described (Kiel et al, Cell 121:1109-1121 (2005)). Colony forming cells (CFCs) and CFU-S12 assays were also performed to measure functional hematopoietic stem/progenitor cell content. For CFCs, either whole BM or cultured lineage−cells, or KSL cells were plated onto methylcellulose (StemCell Technologies, Vancouver, BC, Canada), and colonies were scored on day 14. 1×10^5 BM or 2×10^5 cells were collected from donor mice and injected via tail vein into recipient C57B16 mice that had been given 950 cGy TBI. At day +12 post-injection, spleens from recipient mice were harvested and stained with Bouin's fixative solution (Ricca Chemical Company, Arlington, Tex.), and colonies were counted as previously described (Till and MeRadiat. Res. 14:213-222 (1961)). Complete blood counts were performed on a HemaVet 950 (Drew Scientific, Dallas, Tex.).
Competitive repopulation assays were also performed using donor C57B16 mice (CD45.2^+) that had been irradiated with 700 cGy TBI and gavaged daily with 10 μg/G erlotinib (Genentech, San Francisco, Calif.) or 150 μl water beginning on day 0 and continued through day +14. Donor BM cells were injected via tail vein into recipient B6.SJL mice (CD45.1^+) at a dose of 5×10^5 cells with a competing dose of host 1×10^5 BM MNCs. Tie2Cre;Bak1^−/−;Bax^FL/− mice were gavaged daily with 10 μg/G erlotinib or water starting day −3 and given 300 cGy TBI on day 0. Erlotinib administration continued until the timepoint of donor BM cell collection and analysis. Tie2Cre;Bak1^−/−;Bax^FL/− BM cells were injected via tail vein into recipient CD45.1^+ mice at a cell dose of 3×10^5 cells with a competing dose of host 1×10^5 CD45.1^+ cells. Multilineage hematopoietic reconstitution was measured in the PB of recipient mice by flow cytometry at 4, 8, and 12 weeks post-transplant. For survival studies with erlotinib administration, C57B16 mice were exposed to 700 cGy and then given 10 μg/G erlotinib or water starting day −3 and continuing daily through day +14.
Ten micrometer sections were cut using they CryoJane tape system (Instrumedics Inc, Hackensack, N.J., USA). Femurs were stained with hematoxylin and eosin or anti-mouse endothelial cell antibody (MECA-32) as previously described (Salter et al, Blood 113:2104-2107 (2009)) to assess BM cellularity and the BM vasculature after irradiation. Images were obtained using an Axiovert 200 microscope (Carl Zeiss Microscopy, Thornwood, N.Y.) or a Leica SP5 confocal microscope (Leica Microsystems Inc, Buffalo Grove, Ill.). Adobe Photoshop software (version 9.0.2, Adobe Systems, San JoSe, Calif.) was used to quantify positive signal as a measure of spatial distribution in the fields (Lehr et al, J. Histochem. Cytochem. 45:1559-1565 (1997), Lehr et al, J. Histochem. Cytochem. 47:119-126 (1999)).

BM KSL cells [3] = assay: Annexin V apoptosis assay of irradiated BM KSL cells in culture; type: cell-based, mouse; conditions: 72 hours, vs cytokines alone
Experimental: (§1) Cell apoptosis and necrosis were analyzed by flow cytometry according to manufacturer's protocols with Annexin V-FITC and 7-AAD staining (BD, San Jose, Calif.). […] Cells were fixed and permeabilized with Fix Buffer I and Perm Buffer III (BD), and then stained with mouse anti-phospho-AKT-S473 PE (BD) or isotype control. Cell cycle analysis was performed by flow cytometric analysis modified from previous reports (Jordan et al, Exp. Hematol. 24:1347-1355 (1996), Chute et al, Hum. Gene Ther. 11:2515-2528 (2000), Sungartz et al, Blood 119:1308-1309 (2012)). Briefly, cells were fixed and permeabilized with 0.25% Saponin (Calbiochem, La Jolla, Calif.), 2.5% paraformaldehyde, 2% FBS in 1×PBS, and then labeled with Ki67-FITC and 7-AAD (BD). BM lin^− cells from VavCre;EGFR^+/+ or VavCre;EGER^fl/fl were cultured with TSF or TSF+10 μM erlotinib, or TSF following 300 cGy for 72 hours, and then collected for total cell counts and CFCs analysis.

AKT-S473 = assay: Phosphorylation of AKT-S473 in irradiated BM KSL cells; type: cell-based, mouse; conditions: EGF treatment of irradiated BM KSL cells in culture, within 15 minutes, vs TSF alone
Experimental: as §1

EGFR = assay: Phosphorylation of EGFR-Y845 in BM KSL cells in culture; type: cell-based, mouse; conditions: wild type BM KSL cells treated with EGF in vitro (20 ng/mL, 15 minutes)
DNA-PK = assay: Phosphorylation of DNA-PK in irradiated BM lin- cells; type: cell-based, mouse; conditions: 300 cGy BM lin- cells, EGF 20 ng/ml, vs cytokines alone
Experimental: The phosphorylation of the T2647 domain of DNA-PK was measured using immunofluorescence and flow cytometric analysis. […] Cells were separated onto a glass slide, fixed with 4% paraformaldehyde and permeabilized with 0.3% Triton-X. Cells were stained with rabbit polyclonal DNA-PK or rabbit IgG (Abeam, Cambridge, Mass.) and donkey anti-rabbit Alexafluor 488 antibody and counterstained with Hoechst 33342 (Life Technologies, Grand Island, N.Y.).

C57B16 mice = assay: Survival of C57B16 mice after 700 cGy TBI; type: in vivo, mouse; conditions: 0.5 ug/G EGF daily x 7 days from +2 hours, saline controls 57%
[4] = 700 cGy TBI, EGF 0.5 ug/G IP daily x 7 days, day +7

Substance: EGF: epidermal growth factor; recombinant EGF (R&D Systems)
- expansion of BM KSL cells and CFU-S12 (BM KSL cells [1]): increased significantly; also recorded: significant expansion
- increased BM KSL progenitor cells vs saline [2, 4]: 6 fold
- increased BM cells vs saline [2, 4]: 2 fold
- increased CFCs vs saline [2, 4]: 7 fold
- increased CFU-S12 vs saline [2, 4]: 8 fold
- BM cellularity ([2]; 700 cGy TBI, EGF daily x 7 days, day +7): preserved BM cellularity; also recorded: largely preserved
- BM HSC content by competitive repopulation assay ([2]; 700 cGy TBI, EGF x 7 days, BM at day +7, vs saline): significantly increased
- multilineage reconstitution of myeloid cells, B cells and T cells in recipients ([2]; BM from irradiated EGF-treated mice, 12 weeks post-transplant, vs saline): increased multilineage reconstitution
- repopulating cell content (donor stem cell engraftment in recipients) ([2]; Example 1, BM at day +7 or day +14 following 700 cGy TBI, EGF vs saline): significantly higher repopulating cell content
- recovery of bone marrow stem and progenitor cells ([2]; Example 1, recombinant EGF via intraperitoneal injection into irradiated wild type mice, vs controls): marked acceleration
- engraftment in secondary transplant recipients at 12 weeks ([2]; donor BM collected at day +7 following TBI, data not shown): no significant engraftment
- donor cell repopulation in secondary transplant recipients at 12 weeks ([2]; donor BM collected at day +14 following TBI from EGF-treated mice, vs saline): significantly increased; also recorded: markedly increased donor cell repopulation
- decreased Annexin+ KSL cells (BM KSL cells [3]; C57B16 BM KSL, 300 cGy, cytokines plus 20 ng/ml EGF): 2 fold
- percentage of Annexin+ cells (BM KSL cells [3]; irradiated BM KSL cells from Tie2Cre;Bak1-/-;BaxFl/- mice, EGF): further decreased
- increase in Akt phosphorylation (AKT-S473): 50%
- EGFR signaling as measured by EGFR phosphorylation (EGFR): induced EGFR signaling
- phospho-DNA-PK levels by immunofluorescence staining (DNA-PK; 15 minutes): increased phospho-DNA-PK; also recorded: significant increase
- phospho-DNA-PK levels by FACS analysis (DNA-PK; 1 hour): increased phospho-DNA-PK; also recorded: significant increase
- mice alive and well through day +30 (C57B16 mice): 93%
